US11382888B2, “Combination of topical medications for the treatment of skin diseases and methods of use” (American University of Beirut, priority 2019, dated 2022)

Experiments:
[1] = general statement, no test described; cited from earlier work
patients with ARCI = experiment: Left sided vs right sided trial of the lovastatin-cholesterol combination cream in ARCI patients; format: in vivo, human; parameters: Erythema / Total score: scale not given here; conditions: left side glycolic acid only, right side also combination cream
From the text: Each patient was given a severity score based on 5 criteria: (1) skin thickness and/or scaling; (2) pain, pruritus, and/or discomfort; (3) erythema; (4) impact of the condition on the ability to perform daily functions; and (5) the patient's subjective severity scoring, i.e., the patient's own assessment of the severity of the condition.
Five patients applied the combination cream of lovastatin and cholesterol on the right side of the body only, while the glycolic acid was applied to both sides (patients 1, 2, 3, 4, and 6).

## CC(=O)N1CCN(c2ccc(OCC3COC(Cn4ccnc4)(c4ccc(Cl)cc4Cl)O3)cc2)CC1 (racemic) [Ketoconazole, 1-acetyl-4-[4-[[2-(2,4-dichlorophenyl)-2-[(1H-imidazol-1-yl)-methyl]-1,3-dioxolan-4-yl]methoxy]phenyl]piperazine]
[1]
  solubility: low solubility

## O=C(O)CO [glycolic acid, hydroxyacetic acid]
Patients with ARCI; patient 1, at 2 months vs baseline total score
  % change: −5.4545%
Patients with ARCI; patient 1, at 2 months
  Ability to perform daily functions: 5
  Erythema: 9
  Pain/pruritis/discharge: 6
  Patient severity scoring: 17
  Response: Mild
  Skin thickness/scaling: 15
  Total score: 52
Patients with ARCI; patient 1, at 3 months vs baseline total score
  % change: −54.545%
Patients with ARCI; patient 1, at 3 months
  Ability to perform daily functions/to move: 2
  Erythema: 4
  Pain/pruritis/discharge: 2
  Patient severity scoring: 8
  Skin thickness/scaling: 9
  Total score: 25
Patients with ARCI; patient 2, at 2 months vs baseline total score
  % change: −12%
Patients with ARCI; patient 2, at 2 months
  Ability to perform daily functions: 5
  Erythema: 6
  Pain/pruritis/discharge: 6
  Patient severity scoring: 17
  Response: Mild
  Skin thickness/scaling: 10
  Total score: 44
Patients with ARCI; patient 2, at 3 months vs baseline total score
  % change: −58%
Patients with ARCI; patient 2, at 3 months
  Ability to perform daily functions/to move: 2
  Erythema: 4
  Pain/pruritis/discharge: 4
  Patient severity scoring: 5
  Skin thickness/scaling: 6
  Total score: 21
Patients with ARCI; patient 3, at 2 months vs baseline total score
  % change: −3.7037%
Patients with ARCI; patient 3, at 2 months
  Ability to perform daily functions: 3
  Erythema: 3
  Pain/pruritis/discharge: 3
  Patient severity scoring: 10
  Response: Mild
  Skin thickness/scaling: 7
  Total score: 26
Patients with ARCI; patient 3, at 3 months vs baseline total score
  % change: −40.7407%
Patients with ARCI; patient 3, at 3 months
  Ability to perform daily functions/to move: 1
  Erythema: 2
  Pain/pruritis/discharge: 2
  Patient severity scoring: 7
  Response: Good
  Skin thickness/scaling: 4
  Total score: 16
Patients with ARCI; patient 4, at 2 months vs baseline total score
  % change: −41.818%
Patients with ARCI; patient 4, at 2 months
  Ability to perform daily functions: 3
  Erythema: 9
  Pain/pruritis/discharge: 4
  Patient severity scoring: 8
  Response: Good
  Skin thickness/scaling: 8
  Total score: 32
Patients with ARCI; patient 4, at 3 months vs baseline total score
  % change: −65.455%
Patients with ARCI; patient 4, at 3 months
  Ability to perform daily functions/to move: 2
  Erythema: 4
  Pain/pruritis/discharge: 2
  Patient severity scoring: 5
  Skin thickness/scaling: 6
  Total score: 19
Patients with ARCI; patient 6, at 2 months vs baseline total score
  % change: −7.353%
Patients with ARCI; patient 6, at 2 months
  Ability to perform daily functions: 10
  Erythema: 13
  Pain/pruritis/discharge: 8
  Patient severity scoring: 17
  Response: Mild
  Skin thickness/scaling: 15
  Total score: 63
Patients with ARCI; patient 6, at 3 months vs baseline total score
  % change: −10.2941%
Patients with ARCI; patient 6, at 3 months
  Ability to perform daily functions/to move: 10
  Erythema: 13
  Pain/pruritis/discharge: 7
  Patient severity scoring: 17
  Response: Mild
  Skin thickness/scaling: 14
  Total score: 61
